Measured values as given in ChEMBL document CHEMBL1139835, “Novel quinolizidinyl derivatives as antiarrhythmic agents” (J Med Chem, 2007).
Active and inactive are the calls of the source. The rule behind the calls is not given here.

Tests used:
[1] = Negative inotropic activity assessed as decrease in developed tension in isolated guinea pig left atrium; type: functional, tissue-based; settings: Cavia porcellus, Cardiac atrium
[2] = Negative inotropic activity assessed as decrease in developed tension in isolated guinea pig left atrium at 1 uM relative to control; type: functional, Cavia porcellus, Cardiac atrium; parameters: scale not given: the % may be the effect or the level left
[3] = test system: Aorta; assay: Inhibition of calcium-induced contraction of potassium ion depolarized guinea pig aortic strips at 100 uM; type: functional; settings: Cavia porcellus
[4] = (§1) Activity against alternating current-induced arrhythmia in guinea pig left atrium at 100 uM; type: functional, Cavia porcellus, Cardiac atrium
[5] = Negative chronotropic activity assessed as decrease in atrial rate in isolated guinea pig right atrium at 100 uM relative to control; type: functional, Cavia porcellus, Cardiac atrium; parameters: scale not given: the % may be the effect or the level left
[6] = test system: Heart; assay: Intraventricular conduction time in spontaneously beating Langendorff-perfused guinea pig heart at 10 uM; type: functional, Cavia porcellus
[7] = test system: Heart; assay: Heart rate in spontaneously beating Langendorff-perfused guinea pig heart at 1 nM; type: functional, Cavia porcellus; parameters: unit not given here
[8] = test system: Heart; assay: Heart rate in spontaneously beating Langendorff-perfused guinea pig heart at 0.1uM; type: functional, Cavia porcellus; parameters: unit: beats/min
[9] = test system: Heart; assay: Atrioventricular conduction time in spontaneously beating Langendorff-perfused guinea pig heart at 10 nM; type: functional, Cavia porcellus
[10] = test system: Heart; assay: Heart rate in spontaneously beating Langendorff-perfused guinea pig heart at 10 nM; type: functional, Cavia porcellus; parameters: unit not given here
[11] = test system: Heart; assay: Intraventricular conduction time in spontaneously beating Langendorff-perfused guinea pig heart at 1 uM; type: functional, Cavia porcellus
[12] = Negative inotropic activity assessed as decrease in developed tension in isolated guinea pig left atrium at 5 uM relative to control; type: functional, Cavia porcellus, Cardiac atrium; parameters: scale not given: the % may be the effect or the level left
[13] = test system: Heart; assay: Ventricular action potential duration in spontaneously beating Langendorff-perfused guinea pig heart at 1 uM; type: functional, Cavia porcellus
[14] = test system: Heart; assay: Atrioventricular conduction time in spontaneously beating Langendorff-perfused guinea pig heart at 1 nM; type: functional, Cavia porcellus
[15] = test system: Heart; assay: Intraventricular conduction time in spontaneously beating Langendorff-perfused guinea pig heart at 10 nM; type: functional, Cavia porcellus
[16] = test system: Heart; assay: Atrioventricular conduction time in spontaneously beating Langendorff-perfused guinea pig heart at 1 uM; type: functional, Cavia porcellus
[17] = test system: Heart; assay: Ventricular action potential duration in spontaneously beating Langendorff-perfused guinea pig heart at 10 uM; type: functional, Cavia porcellus
[18] = test system: Heart; assay: Intraventricular conduction time in spontaneously beating Langendorff-perfused guinea pig heart at 0.1 uM; type: functional, Cavia porcellus
[19] = test system: Heart; assay: Ventricular action potential duration in spontaneously beating Langendorff-perfused guinea pig heart at 1 nM; type: functional, Cavia porcellus
[20] = test system: Heart; assay: Ventricular action potential duration in spontaneously beating Langendorff-perfused guinea pig heart at 0.1 uM; type: functional, Cavia porcellus
[21] = test system: Heart; assay: Atrioventricular conduction time in spontaneously beating Langendorff-perfused guinea pig heart at 0.1 uM; type: functional, Cavia porcellus
[22] = test system: Heart; assay: Intraventricular conduction time in spontaneously beating Langendorff-perfused guinea pig heart at 1 nM; type: functional, Cavia porcellus
[23] = test system: Heart; assay: Heart rate in spontaneously beating Langendorff-perfused guinea pig heart at 10 uM; type: functional, Cavia porcellus; parameters: unit not given here
[24] = test system: Heart; assay: Heart rate in spontaneously beating Langendorff-perfused guinea pig heart at 1 uM; type: functional, Cavia porcellus; parameters: unit not given here
[25] = test system: Heart; assay: Atrioventricular conduction time in spontaneously beating Langendorff-perfused guinea pig heart at 10 uM; type: functional, Cavia porcellus
[26] = test system: Heart; assay: Ventricular action potential duration in spontaneously beating Langendorff-perfused guinea pig heart at 10 nM; type: functional, Cavia porcellus
[27] = Activity against alternating current-induced arrhythmia in guinea pig left atrium; type: functional, tissue-based; settings: Cavia porcellus, Cardiac atrium
[28] = Positive chronotropic activity in isolated guinea pig right atrium at 5 uM relative to control; type: functional, Cavia porcellus, Cardiac atrium
[29] = Activity against alternating current-induced arrhythmia in guinea pig left atrium at 50 uM; type: functional, Cavia porcellus, Cardiac atrium
[30] = Negative inotropic activity assessed as decrease in developed tension in isolated guinea pig left atrium at 100 uM relative to control; type: functional, Cavia porcellus, Cardiac atrium; parameters: scale not given: the % may be the effect or the level left
[31] = test system: Aorta; assay: Inhibition of calcium-induced contraction of potassium ion depolarized guinea pig aortic strips at 50 uM; type: functional; settings: Cavia porcellus
[32] = Negative inotropic activity assessed as decrease in developed tension in isolated guinea pig left atrium at 10 uM relative to control; type: functional, Cavia porcellus, Cardiac atrium; parameters: scale not given: the % may be the effect or the level left
[33] = Activity against alternating current-induced arrhythmia in guinea pig left atrium at 10 uM; type: functional, Cavia porcellus, Cardiac atrium
[34] = Negative chronotropic activity assessed as decrease in atrial rate in isolated guinea pig right atrium at 50 uM relative to control; type: functional, Cavia porcellus, Cardiac atrium; parameters: scale not given: the % may be the effect or the level left
[35] = Negative chronotropic activity assessed as decrease in atrial rate in isolated guinea pig right atrium at 10 uM relative to control; type: functional, Cavia porcellus, Cardiac atrium; parameters: scale not given: the % may be the effect or the level left
[36] = Negative inotropic activity assessed as decrease in developed tension in isolated guinea pig left atrium at 50 nM relative to control; type: functional, Cavia porcellus, Cardiac atrium; parameters: scale not given: the % may be the effect or the level left
[37] = tissue or blood; settings: Cavia porcellus, Cardiac atrium
[38] = Negative inotropic activity assessed as decrease in developed tension in isolated guinea pig left atrium at 50 uM relative to control; type: functional, Cavia porcellus, Cardiac atrium; parameters: scale not given: the % may be the effect or the level left
[39] = Negative inotropic activity assessed as decrease in developed tension in isolated guinea pig left atrium at 0.5 uM relative to control; type: functional, Cavia porcellus, Cardiac atrium; parameters: scale not given: the % may be the effect or the level left
[40] = Positive chronotropic activity in isolated guinea pig right atrium relative to control; type: functional, Cavia porcellus, Cardiac atrium
[41] = species: Cavia porcellus; assay: as §1; type: functional; settings: Cardiac atrium

O=C(NC[C@@H]1CCCN2CCCC[C@H]12)c1ccc([N+](=O)[O-])cc1 showed an EC50 [1] of 38 nM, an Activity [2] of 74% and an inhibition at 100 µM [3] of 18%. It also gave an Activity [4] of 18% and an Activity [5] of 28%.
For Cc1cc(N)cc(C)c1OC[C@@H]1CCCN2CCCC[C@H]12, the Activity [6] was 32 ms, the Activity [7] was 192 and the Activity [8] was 184. The Activity [9] was 60 ms, the Activity [10] was 190 and the Activity [11] was 32 ms. The Activity [12] was 83%, the EC50 [1] was 290 nM and the Activity [13] was 194 ms. It also gave an Activity [14] of 58 ms, an Activity [15] of 33 ms and an Activity [16] of 66 ms. The Activity [17] was 205 ms, the inhibition at 100 µM [3] was 15% and the Activity [4] was 166%. For the same compound, the Activity [5] was 38%, the Activity [18] was 31 ms and the Activity [19] was 160 ms. It also gave an Activity [20] of 182 ms, an Activity [21] of 64 ms and an Activity [22] of 30 ms. The Activity [23] was 175, the Activity [24] was 180 and the Activity [25] was 70 ms. For the same compound, the Activity [26] was 170 ms and the EC50 [27] was 970 nM.
Compound CCN(CC)CC(=O)Nc1c(C)cccc1C [LIDOCAINE] has an EC50 [1] of 17 nM, an Activity [28] of 29% and an Activity [2] of 88%. It also gave an inhibition at 100 µM [3] of 14% and an Activity [29] of 34%.
Compound CCCCc1oc2ccccc2c1C(=O)c1cc(I)c(OCCN(CC)CC)c(I)c1 [AMIODARONE] has an Activity [30] of 30%, an Activity [6] of 24 ms and an Activity [7] of 187. It also gave an Activity [8] of 171, an Activity [9] of 55 ms and an Activity [10] of 180. For the same compound, the Activity [11] was 22 ms, the Activity [13] was 174 ms and the Activity [14] was 54 ms. It also gave an Activity [15] of 20 ms, an Activity [16] of 56 ms and an Activity [17] of 182 ms. It also gave an inhibition at 100 µM [3] of 3%, an Activity [4] of 10% and an Activity [5] of 72%. It also gave an Activity [18] of 21 ms, an Activity [19] of 161 ms and an Activity [20] of 169 ms. For the same compound, the Activity [21] was 55 ms, the Activity [22] was 20 ms and the Activity [23] was 132. It also gave an Activity [24] of 164, an Activity [25] of 58 ms and an Activity [26] of 161 ms.
Cc1cc(N)cc(C)c1OC[C@H]1CCCN2CCCC[C@H]12 showed an inhibition at 50 µM [31] of 32%, an Activity [32] of 91% and an EC50 [1] of 630 nM. For the same compound, the Activity [33] was 38% and the Activity [5] was 44%.
CC(=O)Nc1ccc(C(=O)NC[C@@H]2CCCN3CCCC[C@H]23)cc1 gave an Activity [6] of 33 ms, an Activity [32] of 86% and an Activity [7] of 180. The Activity [8] was 170, the Activity [9] was 65 ms and the Activity [34] was 14%. It also gave an Activity [10] of 175, an Activity [11] of 34 ms and an EC50 [1] of 59 nM. For the same compound, the Activity [13] was 195 ms, the Activity [14] was 62 ms and the Activity [15] was 33 ms. For the same compound, the Activity [16] was 72 ms, the Activity [17] was 204 ms and the inhibition at 100 µM [3] was 3%. The Activity [18] was 32 ms, the Activity [29] was 92% and the Activity [19] was 170 ms. For the same compound, the Activity [20] was 190 ms, the Activity [21] was 70 ms and the Activity [22] was 34 ms. It also gave an Activity [23] of 165, an Activity [24] of 166 and an Activity [25] of 75 ms. The Activity [26] was 182 ms and the EC50 [27] was 470 nM.
Cc1cccc(C)c1OC[C@@H]1CCCN2CCCC[C@H]12 showed an Activity [6] of 31 ms, an inhibition at 50 µM [31] of 26% and an Activity [7] of 218. It also gave an Activity [8] of 210, an Activity [9] of 64 ms and an Activity [10] of 215. For the same compound, the Activity [11] was 30 ms, the Activity [13] was 200 ms and the Activity [14] was 60 ms. It also gave an Activity [33] of 176%, an Activity [15] of 30 ms and an Activity [16] of 68 ms. It also gave an Activity [35] of 19%, an Activity [17] of 210 ms and an Activity [18] of 28 ms. It also gave an Activity [19] of 155 ms, an Activity [20] of 170 ms and an Activity [21] of 66 ms. The Activity [22] was 30 ms, the Activity [23] was 203 and the Activity [24] was 206. For the same compound, the Activity [36] was 25%, the Activity [25] was 70 ms and the Activity [26] was 160 ms. The EC50 [27] was 460 nM.
Cc1cc(C(=O)c2ccccc2)cc(C)c1NC(=O)C[C@@H]1CCCN2CCCC[C@H]12 gave an EC50 [37] of 3980 nM, an Activity [34] of 70% and an EC50 [1] of 760 nM. It also gave an inhibition at 100 µM [3] of 31%, an Activity [38] of 88% and an Activity [29] of 55%. For the same compound, the EC50 [27] was 4810 nM.
For CCN(CC)CCNC(=O)c1ccc(N)cc1 [PROCAINAMIDE], the Activity [39] was 92%, the EC50 [1] was 14 nM and the inhibition at 100 µM [3] was 3%. It also gave an Activity [29] of 11% and an Activity [40] of 9%.
For Cc1cc([N+](=O)[O-])cc(C)c1NC(=O)C[C@@H]1CCCN2CCCC[C@H]12, the EC50 [1] was 3460 nM, the inhibition at 100 µM [3] was 4% and the Activity [41] was “inactive”. The Activity [5] was 25% and the Activity [38] was 79%.
Cc1cc(C(=O)c2ccccc2)cc(C)c1OC[C@@H]1CCCN2CCCC[C@H]12 showed an Activity [34] of 41%, an EC50 [1] of 160 nM and an inhibition at 100 µM [3] of 17%. It also gave an Activity [38] of 94%, an Activity [29] of 64% and an EC50 [27] of 6750 nM.
